Measured values reported in article PMC12736570, “The Absorption, Distribution, Excretion, and In Vitro Hepatic Microsomal Metabolism of the Novel CDK Compound XMD12 in Sprague-Dawley Rats” (Pharmaceutics, 2025).
“And” between values parts separate entries of the source, which are not always exact repeats. Identical values can stand only once. Like-named read-outs stand apart in the source and are kept apart here. One block for each compound: values may come before it.

What was measured:
plasma protein = details: cited from earlier work
[1] = cited from earlier work
[2] = Tissue distribution study after gastric gavage; type: in vivo, Sprague-Dawley rats; details: gastric gavage 20 mg/kg
Description: Following a 12-h fasting period, 25 SD rats were randomly divided into 5 groups, each comprising 5 rats. These rats were administered the drug at a dosage of 20 mg/kg through gastric gavage. […] Blood was drawn from the abdominal aorta to ensure minimal residual blood within the rats, followed by euthanasia. A variety of tissues including the heart, liver, spleen, lungs, kidneys, stomach, small intestine, fat, muscles, and brain were then harvested. After weighing, all samples were stored in a freezer at −80 °C. The subsequent processing and analysis followed the described methods, aiming to determine the concentration of XMD12 in each tissue sample at different time intervals.

[3] = Urine and feces excretion study after gastric gavage; type: in vivo, Sprague-Dawley rats; details: gastric gavage 20 mg/kg
Description: Five male SD rats were housed individually in metabolic cages for adaptation for a day. During this period, urine and feces were collected as blank samples. The following day, the rats were orally administered XMD12 at a dose of 20 mg/kg by gastric gavage. Urine and feces samples were then collected at intervals of 0–4 h, 4–8 h, 8–12 h, 12–24 h, and 24–36 h post-administration. Measurements of volume and weight were recorded for each sample. Employing the outlined procedures, these samples underwent processing and analysis to determine the presence of XMD12 across different time spans within the collected urine and feces samples.

[4] = Metabolic stability in rat liver microsome incubation system; type: in vitro ADME; details: rat liver microsomes
Description: Rat liver microsomes (CYP450) were introduced into centrifuge tubes containing phosphate buffer. Different concentrations of the test compound were added to the experimental group, while an equal amount of buffer was added to the control group. Following a 10-min pre-incubation, NADPH was introduced to initiate the reaction, and the mixture was then incubated at 37 °C in a water bath for […]. The incubation system was composed of 10 μL of XMD12 substrate (0.5 μg/mL), 5 μL of rat liver microsomes (20 mg/mL), 20 μL of an NADPH generating system at a final concentration of 1 mM, and 465 μL of phosphate-buffered saline (pH 7.4). The NADPH generating system was prepared by mixing with 5 μL of a complementary Mix solution prior to use. This Mix solution contained MgCl2, EDTA, glucose-6-phosphate, glucose-6-phosphate dehydrogenase, and oxidized nicotinamide adenine dinucleotide phosphate (NADP^+). At intervals of 0, 5, 15, 30, 45, 60, 90, and 120 min, the reaction was halted by adding a cold acetonitrile solution containing the internal standard at a 1:2 ratio. This mixture underwent vigorous vortexing for 3 min before being centrifuged at 14,000 rpm for 10 min. The resulting supernatant was dried using nitrogen gas and subsequently reconstituted with 50% acetonitrile. After thorough vortexing for 2 min, the solution underwent a second centrifugation at 14,000 rpm for 10 min, and the supernatant was then injected into LC-MS/MS for analysis.

[5] = Plasma pharmacokinetics after single intravenous administration and gastric gavage; type: in vivo, Sprague-Dawley rats; details: for AUC0-t / AUC0-∞ / CL / Cmax / MRT0-t / Tmax / V / t1/2: n = 5
Description: Ten healthy SD rats were divided into two groups, each comprising five rats. Following a 12-h fasting period, the rats in the respective groups were administered XMD12 at dosages of 10 mg/kg via gastric gavage and 2 mg/kg via tail vein injection. The rats were anesthetized with isoflurane, and blood samples of approximately 150 uL were collected via the eye socket vein using capillaries. These samples were obtained prior to dosing (at 0 min) and at intervals of 0.083, 0.25, 0.5, 1, 1.5, 2.5, 4, 6, 8, 12 and 24 h post-dosing. The blood was then placed in centrifuge tubes pre-treated with heparin sodium, centrifuged at 3000 rpm for 10 min, and the resulting supernatant was stored in a refrigerator at −20 °C. The plasma samples underwent processing as per the outlined “Sample Preparation” methods and were analyzed using the specified procedures under “Instrument Conditions” to ascertain XMD12 concentration in the rat plasma at various time points. Utilizing DAS 3.2.8 (BioGuider Co., Shanghai, China), pharmacokinetic software facilitated data processing, computation of pertinent pharmacokinetic parameters, and the creation of blood concentration–time curves for the drug.

[6] = Stability of XMD12 QC samples in rat plasma and liver homogenate; type: in vitro ADME
Text: Our analytical approach adheres to a comprehensive set of validation procedures in accordance with the recommendations outlined in the U.S. Food and Drug Administration’s Bioanalytical Method Validation Guidance (USFDA, 2018). These validation steps encompass a range of critical factors, including method specificity, linearity, sensitivity, carryover effect, accuracy, precision, matrix effect, recovery, dilution integrity, and stability. In assessing the method’s selectivity, we initiated the process by comparing chromatograms obtained from various sample sources. These sources included blank rat plasma, blank rat serum samples spiked with a mixture of standards, and rat plasma samples sourced from pharmacokinetic studies conducted on rats. This evaluation concurrently aided us in identifying and addressing any potential interferences that may occur within the acquisition window of XMD12 and the internal standard (IS). To evaluate linearity, a series of XMD12 concentrations was introduced into blank plasma, allowing us to establish a linear regression equation. The calibration curve (n = 5) was constructed by plotting the ratio of peak areas of XMD12 to IS (y-axis) against the nominal concentration ratio of XMD12 to IS (x-axis), followed by subsequent linear regression analysis. The lower limit of quantification (LLOQ) was defined as the lowest concentration point on the calibration curve that guarantees reliable quantification while maintaining accuracy within the range of 80–120% and precision below 20%. We conducted assessments of intra-day and inter-day precision and accuracy by performing six replicate tests on quality control (QC) samples at concentrations of 3, 120, and 1500 ng/mL over both a single day and a span of three days. Matrix effects and extraction recovery were evaluated through a post-extraction addition approach. Furthermore, we conducted a study on the stability of QC samples with high, medium, and low concentrations under four distinct conditions. […]

[7] = p.o. 10 mg∙kg^−1 (gastric gavage), SD rats

SMILES: CCN1CCN(Cc2ccc(Nc3ncc(F)c(-c4cc(F)c5nc(C)n(C(C)C)c5c4)n3)nc2)CC1 [Abemaciclib]
- plasma protein binding (plasma protein; plasma): 96.3%
- elimination half-life [1]: 17 to 38 h
- oral bioavailability ([1]; human, in vivo): 45%
- Tmax ([1]; human, in vivo): under 8 h
- fecal excretion ([1]; reported in humans): 81%

SMILES: CC(=O)c1c(C)c2cnc(Nc3ccc(N4CCNCC4)cn3)nc2n(C2CCCC2)c1=O [Palbociclib]
- plasma protein binding (plasma protein): 85.3%
- Tmax [1]: 6 to 12 h
- elimination half-life [1]: 24 to 34 h
- volume of distribution [1]: ~2800 L
- volume of distribution (Vd) ([1]; reported in humans): ~ 2800 L

SMILES: CN(C)C(=O)c1cc2cnc(Nc3ccc(N4CCNCC4)cn3)nc2n1C1CCCC1 [Ribociclib]
- oral bioavailability ([1]; human, in vivo): 65.8%
- Tmax ([1]; human, in vivo): 1 to 5 h
- elimination half-life ([1]; human, in vivo): 30 to 55 h
- fecal excretion ([1]; human, in vivo): 69.1%
- volume of distribution (Vd) ([1]; human, in vivo): 1090 L

- time to peak drug concentration in gastrointestinal tissues (stomach and intestines) [2]: 0.5 to 1 h
- brain concentration ([2]; 1 h): 930.17 ± 762.76 ng/g
- liver peak concentration ([2]; 1 h, 20 mg/kg): 24,768 ± 2436.62 ng/g and 24,768 ng/g
- liver concentration ([2]; 5 h): 2241.9 ± 1193.07 ng/g
- liver concentration as percent of the peak value ([2]; 5 h post-dosing): 9%
- concentration in all tissues as percent of peak levels ([2]; by 5 h): below 10%
- interval of rapid fecal elimination [3]: 12 to 24 h
- peak urinary elimination window [3]: 12 to 24 h
- cumulative fecal excretion (of the administered dose) ([3]; 0–36 h): 62.36% ± 19.97%
- cumulative urinary excretion rate ([3]; 0–36 h, 20 mg/kg): 0.0068% and 0.0068% ± 0.0028%
- parent compound remaining ([4]; 5 min incubation, 37 °C, NADPH): 68.8%
- parent compound remaining ([4]; 45 min incubation): 20%
- metabolic rate ([4]; 120 min): 87%
- parent compound remaining ([4]; 120 min incubation): 13%
- intrinsic clearance (CLint) ([4]; CLint = k × (V/P), V 500 μL, P 0.1 mg): 98.5 μL/min/mg protein
- degradation rate constant (k) ([4]; regression of ln remaining percentage vs incubation time): 0.0197 min⁻¹
- plasma concentration ([5]; gastric gavage 10 mg/kg, within 8 h): approaching the LLOQ
- plasma concentration ([5]; i.v. 2 mg/kg, within 30 min): 59.88 ng/mL
- AUC0-t ([5]; i.v. 2 mg∙kg^−1, SD rats): 357.21 ± 66.60 ng·h/mL
- AUC0-∞ ([5]; i.v. 2 mg∙kg^−1, SD rats): 360.03 ± 66.00 ng·h/mL
- CL ([5]; i.v. 2 mg∙kg^−1, SD rats): 5.69 ± 0.95 L/h/kg
- Cmax ([5]; i.v. 2 mg∙kg^−1, SD rats): 827.00 ± 191.30 ng/mL
- MRT0-t ([5]; i.v. 2 mg∙kg^−1, SD rats): 0.74 ± 0.08 h
- Tmax ([5]; i.v. 2 mg∙kg^−1, SD rats): 4.98 min
- V ([5]; i.v. 2 mg∙kg^−1, SD rats): 12.29 ± 3.98 L/kg
- t1/2 ([5]; i.v. 2 mg∙kg^−1, SD rats): 1.47 ± 0.29 h
- peak concentration after gastric gavage relative to intravenous levels ([5]; p.o. 10 mg/kg vs i.v. 2 mg/kg): below 5%
- AUC0-t [5, 7]: 117.78 ± 28.97 ng·h/mL
- AUC0-∞ [5, 7]: 120.06 ± 30.19 ng·h/mL
- CL [5, 7]: 86.64 ± 16.72 L/h/kg
- Cmax [5, 7]: 38.26 ± 10.90 ng/mL
- MRT0-t [5, 7]: 2.475 ± 0.344 h
- Tmax [5, 7]: 78 ± 45.5 min
- V [5, 7]: 150.59 ± 34.37 L/kg
- t1/2 [5, 7]: 1.21 ± 0.16 h
- F (bioavailability) ([5]; p.o. 10 mg∙kg^−1 vs i.v. 2 mg∙kg^−1, SD rats): 6.67%
- plasma half-life ([5]; rat plasma, route not stated): 1 h
- stability, Accuracy ([6]; liver, nominal 30.0 ng∙mL^−1, 6 h at room temperature): 100.93%
- stability, Accuracy ([6]; liver, nominal 30.0 ng∙mL^−1, 15 d, −80 °C): 97.53%
- stability, Accuracy ([6]; liver, nominal 30.0 ng∙mL^−1, autosample at ambient temperature for 6 h): 100.80%
- stability, Accuracy ([6]; liver, nominal 30.0 ng∙mL^−1, freeze–thaw (3 circles)): 100.47%
- stability, Accuracy ([6]; liver, nominal 800.0 ng∙mL^−1, 6 h at room temperature): 101.93%
- stability, Accuracy ([6]; liver, nominal 800.0 ng∙mL^−1, 15 d, −80 °C): 99.40%
- stability, Accuracy ([6]; liver, nominal 800.0 ng∙mL^−1, freeze–thaw (3 circles)): 99.78%
- stability, Accuracy ([6]; liver, nominal 1600.0 ng∙mL^−1, 6 h at room temperature): 101.56%
- stability, Accuracy ([6]; liver, nominal 1600.0 ng∙mL^−1, 15 d, −80 °C): 101.63%
- stability, Accuracy ([6]; liver, nominal 1600.0 ng∙mL^−1, autosample at ambient temperature for 6 h): 100.94%
- stability, Accuracy ([6]; liver, nominal 1600.0 ng∙mL^−1, freeze–thaw (3 circles)): 97.75%
- stability, Accuracy ([6]; plasma, nominal 5 ng∙mL^−1, 6 h at room temperature): 105.58%
- stability, Accuracy ([6]; plasma, nominal 5 ng∙mL^−1, 15 d, −80 °C): 94.20%
- stability, Accuracy ([6]; plasma, nominal 5 ng∙mL^−1, autosample at ambient temperature for 6 h): 92.16%
- stability, Accuracy ([6]; plasma, nominal 5 ng∙mL^−1, freeze–thaw (3 circles)): 97.10%
- stability, Accuracy ([6]; plasma, nominal 90 ng∙mL^−1, 6 h at room temperature): 108.60%
- stability, Accuracy ([6]; plasma, nominal 90 ng∙mL^−1, 15 d, −80 °C): 93.76%
- stability, Accuracy ([6]; plasma, nominal 90 ng∙mL^−1, autosample at ambient temperature for 6 h): 92.44%
- stability, Accuracy ([6]; plasma, nominal 90 ng∙mL^−1, freeze–thaw (3 circles)): 107.22%
- stability, Accuracy ([6]; plasma, nominal 800 ng∙mL^−1, 6 h at room temperature): 110.80%
- stability, Accuracy ([6]; plasma, nominal 800 ng∙mL^−1, 15 d, −80 °C): 102.22%
- stability, Accuracy ([6]; plasma, nominal 800 ng∙mL^−1, autosample at ambient temperature for 6 h): 90.02%
- stability, Accuracy ([6]; plasma, nominal 800 ng∙mL^−1, freeze–thaw (3 circles)): 106.80%
SMILES: COc1cc(F)ccc1-c1nc(Nc2cccc(N3CCOCC3)c2)ncc1F [XMD12]
- plasma concentration ([5]; i.v. 2 mg/kg, by 8 h): below the lower limit of quantification (LLOQ)
